# Laboratory results as given in patent US12161647B2, “Treating hearing loss” (Massachusetts Eye and Ear Infirmary, priority 2012, dated 2024).
# Tested on: noise-damaged cochlea
# Test: Hair cell number after systemic LY411575 in noise-damaged mice
# Format: in vivo, mouse
# Details: oral 50 mg/kg for 5 d
# Protocol: 4-week-old mice were exposed free-field, awake and unrestrained, in a small reverberant chamber (22). Acoustic trauma was produced by a 2 h exposure to an 8-16 kHz octave band noise presented at 116 dB SPL. The exposure stimulus was generated by a custom white-noise source, filtered (Brickwall Filter with a 60 dB/octave slope), amplified (Crown power amplifier), and delivered (JBL compression driver) through an exponential horn fitted securely to a hole in the top of a reverberant box.
# For systemic administration, LY411575 (50 mg/kg) dissolved in 0.5% (wt/vol) methylcellulose (WAKO) was injected orally once daily for 5 consecutive d. Hearing was measured by ABR at 1 d before, 2 d, 1, 2 week, 1, 2 and 3 months after noise exposure.
# For collection of mature mouse cochleae, after being deeply anesthetized with ketamine and xylazine, the mice were transcardially perfused with 0.01 M phosphate buffer (pH 7.4) containing 8.6% sucrose, followed by fixative consisting of freshly depolymerized 4% paraformaldehyde in 0.1 M phosphate buffer (pH 7.4). […] Primary antibodies were detected with secondary antibodies conjugated with Alexa 488, 568, and 647 (Molecular Probes) and viewed by confocal fluorescence microscopy (TCS SP5, Leica). […]
# Cell counting for spheres was performed with MetaMorph software. The cell number was determined from DAPI- or Hoechst-positive nuclei. […]
compound,measurement,value
"C[C@H](NC(=O)[C@@H](O)c1cc(F)cc(F)c1)C(=O)N[C@@H]1C(=O)N(C)c2ccccc2-c2ccccc21 [LY411575, N-2((2S)-2-(3,5-difluorophenyl)-2-hydroxyethanoyl)-N1-((7S)-5-methyl-6-oxo-6,7-dihydro-5H-dibenzo[b,d]azepin-7-yl)-l-alaninamide]",outer hair cell numbers,increased
